In patent US20240270809A1, “ORAL GLP RECEPTOR AGONISTS” (priority 2020, published 2024):
Positions of bridges follow the written chain, without caps; N, C: chain ends. Non-standard residues stand in square brackets, D forms with d. Residues, ends and D or L forms follow the SMILES beside them. *: point of attachment. Malonyl(2,2-Me2,histaminyl) = CC(C)(C(=O)NCCc1cnc[nH]1)C(=O)*; Ala(1H-tetrazol-5-yl) = N[C@@H](Cc1nnn[nH]1)C(=O)O; Nle = CCCC[C@H](N)C(=O)O; Aib = CC(C)(N)C(=O)O

Assays:
human GLP2 receptor = molecular target: T1, human GLP2 receptor (Homo sapiens, UniProt O95838); assay: cAMP accumulation assay, functional agonism of human GLP2 receptor; type: cell-based; conditions: HEK cells infected with human GLP2 receptor BacMam virus, HTRF cAMP; for Emax: HEK293, read-out: Human GLP-2R agonist cAMP Emax; for EC50: read-out: Human GLP-2R agonist cAMP pEC50 (converted)
T1 construct: expressed in transfected cells; host or cells: HEK cells, BacMam virus transduction
T1 sequence (O95838 1-553): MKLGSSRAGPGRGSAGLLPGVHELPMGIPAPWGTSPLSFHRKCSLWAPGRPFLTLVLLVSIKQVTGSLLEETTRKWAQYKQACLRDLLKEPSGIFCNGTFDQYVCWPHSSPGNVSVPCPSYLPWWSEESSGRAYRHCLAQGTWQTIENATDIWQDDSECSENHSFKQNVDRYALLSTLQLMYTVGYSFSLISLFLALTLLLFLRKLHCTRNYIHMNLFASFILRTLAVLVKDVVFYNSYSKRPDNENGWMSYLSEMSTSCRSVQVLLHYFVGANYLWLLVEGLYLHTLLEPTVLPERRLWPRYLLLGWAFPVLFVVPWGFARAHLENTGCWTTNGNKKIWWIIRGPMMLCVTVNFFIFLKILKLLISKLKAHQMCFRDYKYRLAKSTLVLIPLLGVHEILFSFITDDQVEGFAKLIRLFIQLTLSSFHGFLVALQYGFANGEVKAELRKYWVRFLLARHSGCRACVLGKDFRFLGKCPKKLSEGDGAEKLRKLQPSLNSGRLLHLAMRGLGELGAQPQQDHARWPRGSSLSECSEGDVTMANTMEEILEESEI
In short: (§1)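 Steps: infect HEK cells with human GLP1 or GLP2 receptor BacMam for 24 hours; freeze; resuspend in HBSS with 0.5 mM IBMX; incubate with agonist 45 min at 37° C; lyse with HTRF detection reagents and read cAMP.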

human GLP1 receptor = molecular target: T2, human GLP1 receptor (Homo sapiens, UniProt P43220); assay: cAMP accumulation assay, functional agonism of human GLP1 receptor; type: cell-based; conditions: HEK cells infected with human GLP1 receptor BacMam virus, HTRF cAMP; for Emax: HEK293, read-out: Human GLP-1R agonist cAMP Emax; for EC50: read-out: Human GLP-1R agonist cAMP pEC50 (converted)
T2 construct: expressed in transfected cells; host or cells: HEK cells, BacMam virus transduction
In short: as §1

T2 sequence (P43220 24-463): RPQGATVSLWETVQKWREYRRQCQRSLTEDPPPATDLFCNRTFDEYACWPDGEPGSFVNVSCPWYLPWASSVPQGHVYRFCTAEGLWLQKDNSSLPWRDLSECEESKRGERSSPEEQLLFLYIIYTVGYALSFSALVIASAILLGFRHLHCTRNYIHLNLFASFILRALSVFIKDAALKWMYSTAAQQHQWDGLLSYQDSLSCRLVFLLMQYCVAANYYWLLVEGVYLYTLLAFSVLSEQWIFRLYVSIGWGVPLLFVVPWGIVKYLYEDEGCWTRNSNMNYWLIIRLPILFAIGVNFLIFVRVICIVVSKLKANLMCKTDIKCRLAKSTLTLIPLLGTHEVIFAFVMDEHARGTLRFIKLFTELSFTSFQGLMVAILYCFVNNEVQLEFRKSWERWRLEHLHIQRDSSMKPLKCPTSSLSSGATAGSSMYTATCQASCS

Emax (human GLP2 receptor) [%]	EC50 (human GLP2 receptor) [nM]	Emax (human GLP1 receptor) [%]	EC50 (human GLP1 receptor) [nM]	Compound
103	0.251	98.1	0.631	CCCC[C@H](NC(=O)[C@H](CCC(=O)O)NC(=O)[C@H](CC(=O)O)NC(=O)[C@H](CO)NC(=O)[C@H](Cc1ccccc1)NC(=O)[C@H](CO)NC(=O)CNC(=O)[C@H](Cc1nn[nH]n1)NC(=O)C(C)(C)C(=O)NCCc1c[nH]cn1)C(=O)N[C@H](Cc1ccccc1)C(=O)N[C@H](C(=O)N[C@H](C(=O)N[C@@H](CC(C)C)C(=O)N[C@@H](CC(=O)O)C(=O)N[C@@H](CC(C)C)C(=O)N[C@@H](CCCCN)C(=O)N[C@@H](C)C(=O)N[C@@H](C)C(=O)N[C@@H](CCCCN)C(=O)N[C@@H](CC(=O)O)C(=O)N[C@@H](Cc1ccccc1)C(=O)N[C@H](C(=O)N[C@@H](CC(N)=O)C(=O)N[C@@H](Cc1c[nH]c2ccccc12)C(=O)N[C@@H](CC(C)C)C(=O)N[C@H](C(=O)N[C@@H](CCC(N)=O)C(=O)N[C@H](C(=O)N[C@H]1CCC(=O)NCCCC[C@@H](C(N)=O)NC(=O)[C@H]([C@@H](C)O)NC(=O)[C@H]([C@@H](C)CC)NC1=O)[C@@H](C)O)[C@@H](C)CC)[C@@H](C)CC)[C@@H](C)CC)[C@@H](C)O [Example 83] ({Malonyl(2,2-Me2,histaminyl)}-[Ala(1H-tetrazol-5-yl)]GSFSDE[Nle][dF]TILDLKAAKDFINWLIQTEITK-NH2; lactam 28-31 (inferred); C-terminus assumed)
103	0.0501	87.3	10	CCCC[C@H](NC(=O)[C@H](CCC(=O)O)NC(=O)[C@@H]1CC(=O)NCCCC[C@H](NC(=O)[C@H](CC(=O)O)NC(=O)C(C)(C)NC(=O)[C@@H](N)Cc2c[nH]cn2)C(=O)N[C@@H](CO)C(=O)N[C@@H](Cc2ccccc2)C(=O)N[C@@H](CO)C(=O)N1)C(=O)N[C@H](Cc1ccccc1)C(=O)N[C@H](C(=O)N[C@H](C(=O)N[C@@H](CC(C)C)C(=O)N[C@@H](CC(=O)O)C(=O)N[C@@H](CC(C)C)C(=O)N[C@@H](CCCCN)C(=O)N[C@@H](C)C(=O)N[C@@H](C)C(=O)N[C@@H](CCCCN)C(=O)N[C@@H](CC(=O)O)C(=O)N[C@@H](Cc1ccccc1)C(=O)N[C@H](C(=O)N[C@@H](CC(N)=O)C(=O)N[C@@H](Cc1c[nH]c2ccccc12)C(=O)N[C@@H](CC(C)C)C(=O)N[C@H](C(=O)N[C@@H](CCC(N)=O)C(=O)N[C@H](C(=O)N[C@@H](CCCCN)C(=O)N[C@H](C(=O)N[C@H](C(=O)N[C@@H](CC(=O)O)C(N)=O)[C@@H](C)O)[C@@H](C)CC)[C@@H](C)O)[C@@H](C)CC)[C@@H](C)CC)[C@@H](C)CC)[C@@H](C)O [Example 84] (H-H[Aib]DKSFSDE[Nle][dF]TILDLKAAKDFINWLIQTKITD-NH2; lactam 4-8; C-terminus assumed)
103	0.0316	95.2	12.6	CCCC[C@@H]1NC(=O)[C@H](CCC(=O)O)NC(=O)[C@@H](NC(=O)[C@H](CO)NC(=O)[C@H](Cc2ccccc2)NC(=O)[C@H](CO)NC(=O)CNC(=O)[C@H](CC(=O)O)NC(=O)C(C)(C)NC(=O)[C@@H](N)Cc2c[nH]cn2)CCCCNC(=O)C[C@@H](C(=O)N[C@H](C(=O)N[C@@H](CC(C)C)C(=O)N[C@@H](CC(=O)O)C(=O)N[C@@H](CC(C)C)C(=O)N[C@@H](CCCCN)C(=O)N[C@@H](C)C(=O)N[C@@H](C)C(=O)N[C@@H](CCCCN)C(=O)N[C@@H](CC(=O)O)C(=O)N[C@@H](Cc2ccccc2)C(=O)N[C@H](C(=O)N[C@@H](CC(N)=O)C(=O)N[C@@H](Cc2c[nH]c3ccccc23)C(=O)N[C@@H](CC(C)C)C(=O)N[C@H](C(=O)N[C@@H](CCC(N)=O)C(=O)N[C@H](C(=O)N[C@@H](CCCCN)C(=O)N[C@H](C(=O)N[C@H](C(=O)N[C@@H](CC(=O)O)C(N)=O)[C@@H](C)O)[C@@H](C)CC)[C@@H](C)O)[C@@H](C)CC)[C@@H](C)CC)[C@@H](C)CC)NC(=O)[C@@H](Cc2ccccc2)NC1=O [Example 85] (H-H[Aib]DGSFSKE[Nle][dF]DILDLKAAKDFINWLIQTKITD-NH2; lactam 8-12; N-terminus and C-terminus assumed)
101	0.00316	96.6	0.316	CCCC[C@H](NC(=O)[C@H](CCC(=O)O)NC(=O)[C@H](CC(=O)O)NC(=O)[C@H](CO)NC(=O)[C@H](Cc1ccccc1)NC(=O)[C@H](CO)NC(=O)CNC(=O)[C@H](CC(=O)O)NC(=O)C(C)(C)NC(=O)[C@@H](N)Cc1c[nH]cn1)C(=O)N[C@H](Cc1ccccc1)C(=O)N[C@H]1CC(=O)NCCCC[C@@H](C(=O)N[C@@H](CCCCN)C(=O)N[C@@H](C)C(=O)N[C@@H](C)C(=O)N[C@@H](CCCCN)C(=O)N[C@@H](CC(=O)O)C(=O)N[C@@H](Cc2ccccc2)C(=O)N[C@H](C(=O)N[C@@H](CC(N)=O)C(=O)N[C@@H](Cc2c[nH]c3ccccc23)C(=O)N[C@@H](CC(C)C)C(=O)N[C@H](C(=O)N[C@@H](CCC(N)=O)C(=O)N[C@H](C(=O)N[C@@H](CCCCN)C(=O)N[C@H](C(=O)N[C@H](C(=O)N[C@@H](CC(=O)O)C(N)=O)[C@@H](C)O)[C@@H](C)CC)[C@@H](C)O)[C@@H](C)CC)[C@@H](C)CC)NC(=O)[C@H](CC(=O)O)NC(=O)[C@H](CC(C)C)NC(=O)[C@H]([C@@H](C)CC)NC1=O [Example 97] (H-H[Aib]DGSFSDE[Nle][dF]DILDKKAAKDFINWLIQTKITD-NH2; lactam 12-16; N-terminus and C-terminus assumed)
101	0.00631	96	20	CCCC[C@H](NC(=O)[C@H](CCC(=O)O)NC(=O)[C@H](CC(=O)O)NC(=O)[C@H](CO)NC(=O)[C@H](Cc1ccccc1)NC(=O)[C@H](CO)NC(=O)CNC(=O)[C@H](CC(=O)O)NC(=O)C(C)(C)NC(=O)[C@@H](N)Cc1c[nH]cn1)C(=O)N[C@H](Cc1ccccc1)C(=O)N[C@H](C(=O)N[C@H](C(=O)N[C@@H](CC(C)C)C(=O)N[C@@H](CC(=O)O)C(=O)N[C@@H](CC(C)C)C(=O)N[C@H]1CCC(=O)NCCCC[C@@H](C(=O)N[C@@H](CC(=O)O)C(=O)N[C@@H](Cc2ccccc2)C(=O)N[C@H](C(=O)N[C@@H](CC(N)=O)C(=O)N[C@@H](Cc2c[nH]c3ccccc23)C(=O)N[C@@H](CC(C)C)C(=O)N[C@H](C(=O)N[C@@H](CCC(N)=O)C(=O)N[C@H](C(=O)N[C@@H](CCCCN)C(=O)N[C@H](C(=O)N[C@H](C(=O)N[C@@H](CC(=O)O)C(N)=O)[C@@H](C)O)[C@@H](C)CC)[C@@H](C)O)[C@@H](C)CC)[C@@H](C)CC)NC(=O)[C@H](C)NC(=O)[C@H](C)NC1=O)[C@@H](C)CC)[C@@H](C)O [Example 98] (H-H[Aib]DGSFSDE[Nle][dF]TILDLEAAKDFINWLIQTKITD-NH2; lactam 17-20; C-terminus assumed)
